Consider three substances from patent US20210162013A1, “COMPOSITIONS AND METHODS FOR IMPROVING THE BIOAVAILABILITY OF GLP1 AND ANALOGUES THEREOF” (Brown University, priority 2018, published 2021).

Like-named read-outs stand apart in the source and are kept apart here. No end group written: not given here.

The conditions of data set [1]: oral, relative to intravenous administration of GLP-1; cited from earlier work.
The test system of data set [2] is BKS.Cg WT mice. Kind of data set: Bioavailability: IPGTT, oral PIN/PLA GLP-1 vs intraperitoneal soluble peptide, serum glucose AUC. The class given is in vivo. On the procedure: All mice were then injected intraperitoneally with glucose (3 mg/ml in 0.2 ml saline). Blood was collected at time 0 (pre-glucose) and at indicated times post-glucose. Serum glucose levels were determined as described above.

For data set [3], the target named is T1, GLP-1 receptor (Homo sapiens, UniProt P43220). Particulars: cited from earlier work.
Data set [4] concerns the target T1, GLP-1 receptor. The settings on record: cited from earlier work. The source holds these as a separate data set.
Data set [5] has as its system type 2 diabetic patients. Particulars: cited from earlier work.

T1 sequence (P43220 24-463, species assumed): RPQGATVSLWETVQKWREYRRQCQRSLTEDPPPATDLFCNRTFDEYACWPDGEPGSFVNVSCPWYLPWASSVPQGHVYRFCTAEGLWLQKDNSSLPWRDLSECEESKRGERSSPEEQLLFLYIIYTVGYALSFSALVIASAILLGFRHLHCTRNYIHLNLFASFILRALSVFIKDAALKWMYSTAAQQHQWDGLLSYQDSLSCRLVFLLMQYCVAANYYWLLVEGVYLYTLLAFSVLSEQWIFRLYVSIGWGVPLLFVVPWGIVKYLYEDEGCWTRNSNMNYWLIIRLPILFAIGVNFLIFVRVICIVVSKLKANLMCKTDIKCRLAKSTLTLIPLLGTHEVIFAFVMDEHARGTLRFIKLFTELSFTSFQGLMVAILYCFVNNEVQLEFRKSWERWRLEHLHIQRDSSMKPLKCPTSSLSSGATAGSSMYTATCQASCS

As for GLP-1 (7-36 amide) [Free], in data set [1], the mean absolute bioavailability is listed as 4%. For the same substance, the “AUC 30 ug (serum glucose area under the curve)” value in data set [2] (30 ug GLP-1/mouse, Free = intraperitoneal soluble peptide, Encap = oral PIN/PLA particles) came to 7515. Besides, the “AUC 90 ug (serum glucose area under the curve)” value in data set [2] (90 ug GLP-1/mouse, Free = intraperitoneal soluble peptide, Encap = oral PIN/PLA particles) turned out to be 7425. Further, the “AUC 250 ug (serum glucose area under the curve)” value in data set [2] (250 ug GLP-1/mouse, Free = intraperitoneal soluble peptide, Encap = oral PIN/PLA particles) came out at 6262. The “effect on blood glucose in IPGTT (in words)” value in data set [2] (250 μg GLP-1, oral particles vs intraperitoneal soluble peptide) is “superior”.
As for “GLP-1(9-36)-NH2 (EGTFTSDVSSYLEGQAAKEFIAWLVKGR-NH2; UniProt P01275 100-127, looked up, fragment)”, the “decrease in agonistic activity” value in data set [3] was greater than 10000 fold. Also, in data set [4], the “lower binding affinity compared to the intact peptide” value is listed as 100 fold.
Turning to “rGLP-1: rGLP-1 given by continuous infusion in a cited study”, the “decrease in fasting serum glucose” value in data set [5] (1.25 pmol/kg/min) is 22.7 mg/dL; in data set [5] (2.5 pmol/kg/min) it was 37.0 mg/dL; in data set [5] (5.0 pmol/kg/min), 53.9 mg/dL; in data set [5] (8.5 pmol/kg/min), 76.2 mg/dL.
